Literature values as cited in patent US20170196794A1, “Oral Composition” (Kao Corporation, priority 2014, published 2017).

Conditions: 20° C.

Compound | solubility in water
OC[C@@H](O)[C@@H](O)CO [erythritol] | 33 % by mass
OC[C@@H](O)[C@@H](O[C@H]1O[C@H](CO)[C@@H](O)[C@H](O)[C@H]1O)[C@H](O)[C@@H](O)CO [maltitol] | 60 % by mass

Now from value to molecule:

solubility in water | Compound
18 % by mass | OC[C@@H](O)[C@@H](O)[C@H](O)[C@H](O)CO [mannitol]
72 % by mass | OC[C@@H](O)[C@@H](O)[C@H](O)[C@@H](O)CO [sorbitol]
66 % by mass | OC[C@@H](O)[C@H](O)[C@@H](O)CO [xylitol]
